# Earlier results, collected in patent publication US11185067B2, “Attractants for rats” (priority 2015, dated 2021).
# Tested on: rats
# Details: odor-painted glass rods inserted into cage; Zhang et al. 2008, 2011
row,SMILES,effects on rat behavior
1,CCCC(=O)CCC [4-heptanone],inducing sniffing or licking
2,CCCCCCCC(C)=O [2-nonanone],inducing sniffing or licking
3,CCCCCC(C)=O [2-heptanone],inducing sniffing or licking
